Laboratory results as given in the COVID Moonshot data (paper PMC11187573), “Identification of SARS-CoV-2 Mpro inhibitors through deep reinforcement learning for de novo drug design and computational chemistry approaches” (RSC Medicinal Chemistry, 2024).

Tests used:
[1] = biological target: SARS-CoV-2 Main Protease (SARS-CoV-2) (UniProt P0DTD1)
[2] = biological target: SARS-CoV-2 Main Protease (SARS-CoV-2) (UniProt P0DTD1); remark: listed apart in the source

| SMILES | inhibition ([1]; 20.0 µM) [%] | inhibition ([1]; 50.0 µM) [%] | inhibition ([2]; 20.0 µM) [%] | inhibition ([2]; 50.0 µM) [%] | relative solubility at 20 uM | relative solubility at 100 uM | IC50 [1] [µM] | IC50 [2] [µM] |
| --- | --- | --- | --- | --- | --- | --- | --- | --- |
| Nc1nnnn1-c1cccc(C(=O)Nc2c(-c3cccnc3)nc3ccccn23)c1 | 11 | 18.3 | -2.5 | 2.69 | 0.98 | 0.79 |  |  |
| C=CC(=O)N1CCC(N(Cc2ccccc2C#N)C2CCC(O)CC2)CC1 (stereo not drawn) |  | 0 | -64 | -8.67 | 0.99 | 0.99 |  |  |
| O=C(c1cc(=O)[nH]c2ccc(F)cc12)N1CCN(S(=O)(=O)c2ccccc2Cl)CC1 |  | 39.8 | 19.5 | 35.1 | 0.98 | 0.93 |  |  |
| Cc1ccncc1NC(=O)CCc1ccccn1 |  | 11.4 | -0.904 | -28.6 | 1 | 1 |  |  |
| Cc1ccncc1NS(=O)(=O)Cc1cccc(Cl)c1 |  | 19 | 4.3 | 9.77 | 1 | 0.99 |  |  |
| COc1ccc2c(c1)C(C(=O)Nc1cncnc1C)CCC2 (stereo not drawn) |  | 2.78 | 6.97 | -24.1 | 1 | 1 |  |  |
| Cc1cc(-c2nc3ccccc3[nH]2)ccc1O |  | -3.73 | -10.3 | -36.8 | 0.99 | 1 |  |  |
| Cc1nnc(NC(=O)Cc2cccc(Cl)c2F)n1C |  | 0 | -12.7 | -10.8 | 1.01 | 1 |  |  |
| C=CC(=O)N(c1ccc(C(C)OC)cc1)C(C(=O)NC(C)(C)C)c1cccnc1 (stereo not drawn) | 0 |  | 7.07 | 15.9 | 0.98 | 0.86 |  |  |
| CO[C@@H](C)C(=O)Nc1cnccc1C (stereo in doubt) |  | 6.67 | 1.23 | 0.255 | 1 | 1.01 |  |  |
| O=C(NCCN1CCN(c2ccccc2)CC1)NCc1ccccn1 | 0 | 0 |  | 12.5 | 0.99 | 0.99 |  |  |
| O=C(Nc1cnccc1Cl)c1cccc(Cl)c1 | 0 | 10.5 | -2.3 | 3.23 | 1 | 1 |  |  |
| O=C(Nc1cccc(-c2cc[nH]n2)c1)C(O)c1cccnc1 (stereo not drawn) | 0 | 0 |  | 10.4 | 1 | 1 |  |  |
| Cc1ccncc1-c1nc(-c2cccc(Cl)c2)no1 |  | 22.9 | 3.58 | 5.25 | 1 | 0.99 |  |  |
| Cc1cc(NC(=O)Cn2cncc2C)cc(C)c1Cl |  | 25.8 | 2.9 | 4.88 | 1 | 0.99 |  |  |
| CN(CCNC(=O)c1cc(=O)[nH]c2ccccc12)c1ccccc1 |  | 8.3 | -2.32 | 19.2 | 0.91 | 0.77 |  |  |
| Cc1ccc(C)c(NC(=O)[C@H]2CNC(=O)C2)c1 (stereo in doubt) |  | 0 | -14.9 | -9.38 | 0.98 | 0.98 |  |  |
| O=C(O)[C@@H](Cc1nc(=O)cc[nH]1)NC[C@@H]1C[C@@H]2C=C[C@H]1C2 (stereo in doubt) |  | 29.5 | 13.7 | 26.4 | 1 | 1 |  |  |
| COc1c(NC(=O)Cc2cccc(Cl)c2Cl)c(C)nn1C |  | 0 | 2.78 | 2.19 | 1 | 1.01 |  |  |
| O=C(Cc1c[nH]c2ncccc12)Nc1cccc(Cl)c1 | 0 |  | 5.95 | 9.34 | 0.99 | 0.97 |  |  |

| SMILES | inhibition ([1]; 20.0 µM) [%] | inhibition ([1]; 50.0 µM) [%] | inhibition ([2]; 20.0 µM) [%] | inhibition ([2]; 50.0 µM) [%] | relative solubility at 20 uM | relative solubility at 100 uM | IC50 [1] [µM] | IC50 [2] [µM] |
| --- | --- | --- | --- | --- | --- | --- | --- | --- |
| C[C@H]1CN(Cc2ccccc2)CC[C@@H]1NC(=O)C(=O)NCc1ccccc1CN1CCCC[C@@H]1C (stereo in doubt) |  | 0 | -2.35 | 1.34 | 1 | 0.99 |  |  |
| O=C(Nc1ccnnc1)NC(Cc1ccccc1)C(=O)N1CCCC1 (stereo not drawn) | 0 | 0 | 0.0835 | 3.23 | 1 | 1 |  |  |
| CC(C)N(C)CC1CCN(c2ccc(S(N)(=O)=O)cc2)CC1 | 0 | 0 |  | -17.8 | 1 | 0.99 |  |  |
| O=C(c1cc(=O)[nH]c2ccccc12)N1CCN(c2ccc(F)cc2)CC1 |  | 52.3 | 57 | 78.5 | 0.99 | 0.99 | 52.7 |  |
| Nc1cccc(C2CN(C(=O)CCl)Cc3ccccc32)c1 (stereo not drawn) |  | 100 | 48 | 53.4 | 0.97 | 0.96 | 11.4 |  |
| C=CC(=O)N(c1ccc2ncsc2c1)C(C(=O)Nc1ccc(OC)cc1)c1cccnc1 (stereo not drawn) | 0 |  | 4.02 | 15.4 | 0.92 | 0.87 |  |  |
| Nc1ncncc1CNC(=O)Nc1ccccc1OCCn1ccnc1 | 1.47 | 9.19 |  | 15.8 | 1 | 1 |  |  |
| O=C(Cc1cccc(Cl)c1)Nn1cnnc1 |  | 0 | -9.88 | -21.6 | 1 | 1 |  |  |
| C=CC(=O)N(c1ccc(C(C)(C)C)cc1)C(C(=O)Nc1ccc(OC)cc1C)c1cccnc1 (stereo not drawn) | 0 | -2.25 |  | 22.4 | 0.97 | 0.57 |  |  |
| C=CC(=O)N(c1ccc(C(C)(C)C)cc1)C(C(=O)Nc1ccc(F)cc1C)c1cccnc1 (stereo not drawn) |  | 1.37 | 5.61 | 13.9 | 0.96 | 0.91 |  |  |
| O=C1/C(=C/c2ccc(O)cc2)c2ccccc2C(=O)N1Cc1ccc2c(c1)OCO2 |  | 20.1 | 6.21 | -3.72 | 0.62 | 0.48 |  |  |
| Cn1cncc1CNC(=O)Nc1cccc(OCC(F)F)n1 | 0 | 28.4 |  | 36.2 | 1 | 1 |  |  |
| NS(=O)(=O)c1ccc(N2CCC(N3CCCCCC3)CC2)cc1 |  | 100 | -1.25 | 0.117 | 1 | 1 | 15.8 |  |
| O=C(CCl)N1CCN(C2(c3cccc(Cl)c3)CC2)CC1 |  | 41.2 | 55.7 | 80.8 | 1.01 | 0.99 |  | 52.3 |
| C=C(CN(C)C)C(=O)N1Cc2ccccc2C(c2ccccc2)C1 (stereo not drawn) | 0 |  | 0.735 | 10.3 | 1 | 0.97 |  |  |
| O=C(c1cc(=O)[nH]c2ccc(Cl)cc12)N1CCN(S(=O)(=O)c2ccccc2F)CC1 |  | 17.1 | -7.48 | 4.42 | 0.94 | 0.91 |  |  |
| O=C(CCc1cnn[nH]1)NC(Cn1cccn1)c1ccccc1 (stereo not drawn) | 0 | 0 | -1.52 | -1.11 | 1 | 1 |  |  |
| O=C(C1CCN(c2ccncc2)CC1)N1CCOCC1 | 0 | 0 |  | -22.6 | 1 | 1 |  |  |
| Cc1cccc(-c2nnnn2C2CC2C)c1NC(=O)CCc1cccnc1 (stereo not drawn) | 0 | 13.5 |  | -16.5 | 1 | 1 |  |  |
